Reference: article PMC9570109, “Improved Trimethylangelicin Analogs for Cystic Fibrosis: Design, Synthesis and Preliminary Screening” (International Journal of Molecular Sciences, 2022)

How the values were obtained:
Assay type in all cases: cell-based
[1] = system: Salmonella typhimurium TA100; experiment: Ames mutagenicity assay, plate incorporation, TA100
Method: (§1) The mutagenicity assay was performed for the test compounds following the plate incorporation method with the histidine-requiring Salmonella typhimurium mutant TA97A, TA98, TA100, and TA1535 strains purchased by Molecular Toxicology Inc. (Boone, NC, USA; moltox.com). All strains (100 µL per plate of fresh overnight cultures) were checked with and without the addition of 0.5 mL of a 5% S9 exogenous metabolic activator (S9 mix). The lyophilized post-mitochondrial supernatant S9 mix (Aroclor 1254-induced, Sprague–Dawley male rat liver in 0.154 M KCl solution), commonly used for the activation of pro-mutagens in mutagenic metabolites (Molecular Toxicology, Inc., Boone, NC, USA), was stored at −80 °C before use. The concentration tested for all the samples were 5, 10, 20, 50, and 100 µL/plate from a stock solution of 500 nM. A fully grown culture of the appropriate tester strain (0.1 mL) was added to 2 mL molten top agar (0.6% agar, 0.6% NaCl, 0.5 mM L-histidine/biotin solution) at 46 °C, together with 0.1 mL of each sample solution at different concentrations, and 0.5 mL S9 mix for assays with metabolic activation. The ingredients were thoroughly mixed and poured onto minimal glucose agar plates (1.5% agar in 2% Vogel–Bonner medium E with 5% glucose solution). DMSO was used as negative a control (100 µL/plate). Positive controls were prepared as follows: 2-aminoanthracene (2 µg/plate) and 2-nitrofluorene (2 µg/plate) for TA 97A, TA98 and TA1535 with and without metabolic activator (S9 mix), respectively; 2-aminoanthracene (2 µg/plate) and sodium azide (2 µg/plate) for TA100, with and without metabolic activator (S9 mix), respectively. The plates were incubated at 37 °C for 72 h and then his+ revertants were checked and counted using a Colony Counter 560 Suntex (Antibioticos, Italy). A sample was considered mutagenic when the observed number of colonies was at least twofold over the spontaneous level of revertants. All determinations were made in triplicate. Statistical analysis: relative standard deviations were calculated using the statistical software STATISTICA 6.0 (StatSoft, Italia srl, Vigonza, Italy). […]
(§2) Salmonella typhimurium TA97A Salmonella typhimurium TA98 Salmonella typhimurium TA100 Salmonella typhimurium 1535 […]
(§3) average SD t/c average SD t/c average SD t/c average SD t/c average SD t/c average SD t/c average SD t/c average SD t/c […]
(§4) *Significant values according to Ames computation (Maron & Ames, 1983); DMSO, C+: negative and positive controls respectively; SD: Standard Deviation; t/c: number of revertant colonies in treated plates/number of revertant colonies in […]

[2] = system: Salmonella typhimurium 1535; experiment: Ames mutagenicity assay, plate incorporation, TA1535
Method: as §1, §2, §3, §4

[3] = system: Salmonella typhimurium TA97A; experiment: Ames mutagenicity assay, plate incorporation, TA97A
Method: as §1, §2, §3, §4

[4] = system: Salmonella typhimurium TA98; experiment: Ames mutagenicity assay, plate incorporation, TA98
Method: as §1, §2, §3, §4

[5] = TA100, +S9, 5 µL/plate of 500 nM stock
[6] = TA100, +S9, 10 µL/plate of 500 nM stock
[7] = TA100, +S9, 20 µL/plate of 500 nM stock
[8] = TA100, +S9, 50 µL/plate of 500 nM stock
[9] = TA100, +S9, 100 µL/plate of 500 nM stock
[10] = TA100, -S9, 5 µL/plate of 500 nM stock
[11] = TA100, -S9, 10 µL/plate of 500 nM stock
[12] = TA100, -S9, 20 µL/plate of 500 nM stock
[13] = TA100, -S9, 50 µL/plate of 500 nM stock
[14] = TA100, -S9, 100 µL/plate of 500 nM stock
[15] = 1535, +S9, 5 µL/plate of 500 nM stock
[16] = 1535, +S9, 10 µL/plate of 500 nM stock
[17] = 1535, +S9, 20 µL/plate of 500 nM stock
[18] = 1535, +S9, 50 µL/plate of 500 nM stock
[19] = 1535, +S9, 100 µL/plate of 500 nM stock
[20] = 1535, -S9, 5 µL/plate of 500 nM stock
[21] = 1535, -S9, 10 µL/plate of 500 nM stock
[22] = 1535, -S9, 20 µL/plate of 500 nM stock
[23] = 1535, -S9, 50 µL/plate of 500 nM stock
[24] = 1535, -S9, 100 µL/plate of 500 nM stock
[25] = +S9, 5 µL/plate of 500 nM stock
[26] = +S9, 10 µL/plate of 500 nM stock
[27] = +S9, 20 µL/plate of 500 nM stock
[28] = +S9, 50 µL/plate of 500 nM stock
[29] = +S9, 100 µL/plate of 500 nM stock
[30] = -S9, 5 µL/plate of 500 nM stock
[31] = -S9, 10 µL/plate of 500 nM stock
[32] = -S9, 20 µL/plate of 500 nM stock
[33] = -S9, 50 µL/plate of 500 nM stock
[34] = -S9, 100 µL/plate of 500 nM stock
[35] = TA98, +S9, 5 µL/plate of 500 nM stock
[36] = TA98, +S9, 10 µL/plate of 500 nM stock
[37] = TA98, +S9, 20 µL/plate of 500 nM stock
[38] = TA98, +S9, 50 µL/plate of 500 nM stock
[39] = TA98, +S9, 100 µL/plate of 500 nM stock
[40] = TA98, -S9, 5 µL/plate of 500 nM stock
[41] = TA98, -S9, 10 µL/plate of 500 nM stock
[42] = TA98, -S9, 20 µL/plate of 500 nM stock
[43] = TA98, -S9, 50 µL/plate of 500 nM stock
[44] = TA98, -S9, 100 µL/plate of 500 nM stock

Cc1cc2c(-c3ccccc3)cc(=O)oc2c2c(C)coc12 [4-PhDMA]
revertant colonies, average [1, 5]: 159.5
t/c (revertant colonies treated/untreated plates) [1, 5]: 0.9
revertant colonies, average [1, 6]: 193.0
t/c (revertant colonies treated/untreated plates) [1, 6]: 1.1
revertant colonies, average [1, 7]: 193.5
t/c (revertant colonies treated/untreated plates) [1, 7]: 1.1
revertant colonies, average [1, 8]: 187.5
t/c (revertant colonies treated/untreated plates) [1, 8]: 1.1
revertant colonies, average [1, 9]: 197.0
t/c (revertant colonies treated/untreated plates) [1, 9]: 1.2
revertant colonies, average [1, 10]: 208.5
t/c (revertant colonies treated/untreated plates) [1, 10]: 1.1
revertant colonies, average [1, 11]: 198.5
t/c (revertant colonies treated/untreated plates) [1, 11]: 1.0
revertant colonies, average [1, 12]: 207.0
t/c (revertant colonies treated/untreated plates) [1, 12]: 1.1
revertant colonies, average [1, 13]: 184.5
t/c (revertant colonies treated/untreated plates) [1, 13]: 0.9
revertant colonies, average [1, 14]: 179.0
t/c (revertant colonies treated/untreated plates) [1, 14]: 0.9
revertant colonies, average [2, 15]: 10.5
t/c (revertant colonies treated/untreated plates) [2, 15]: 1.0
revertant colonies, average [2, 16]: 13.5
t/c (revertant colonies treated/untreated plates) [2, 16]: 1.3
revertant colonies, average [2, 17]: 11.0
t/c (revertant colonies treated/untreated plates) [2, 17]: 1.0
revertant colonies, average [2, 18]: 10.5
t/c (revertant colonies treated/untreated plates) [2, 18]: 1.0
revertant colonies, average [2, 19]: 11.0
t/c (revertant colonies treated/untreated plates) [2, 19]: 1.0
revertant colonies, average [2, 20]: 15.0
t/c (revertant colonies treated/untreated plates) [2, 20]: 1.4
revertant colonies, average [2, 21]: 13.0
t/c (revertant colonies treated/untreated plates) [2, 21]: 1.2
revertant colonies, average [2, 22]: 5.5
t/c (revertant colonies treated/untreated plates) [2, 22]: 0.5
revertant colonies, average [2, 23]: 10.0
t/c (revertant colonies treated/untreated plates) [2, 23]: 0.9
revertant colonies, average [2, 24]: 7.0
t/c (revertant colonies treated/untreated plates) [2, 24]: 0.6
revertant colonies, average [3, 25]: 87.0
t/c (revertant colonies treated/untreated plates) [3, 25]: 0.8
revertant colonies, average [3, 26]: 117.0
t/c (revertant colonies treated/untreated plates) [3, 26]: 1.1
revertant colonies, average [3, 27]: 98.0
t/c (revertant colonies treated/untreated plates) [3, 27]: 0.9
revertant colonies, average [3, 28]: 94.0
t/c (revertant colonies treated/untreated plates) [3, 28]: 0.9
revertant colonies, average [3, 29]: 109.5
t/c (revertant colonies treated/untreated plates) [3, 29]: 1.0
revertant colonies, average [3, 30]: 79.5
t/c (revertant colonies treated/untreated plates) [3, 30]: 1.0
revertant colonies, average [3, 31]: 82.5
t/c (revertant colonies treated/untreated plates) [3, 31]: 1.1
revertant colonies, average [3, 32]: 82.0
t/c (revertant colonies treated/untreated plates) [3, 32]: 1.1
revertant colonies, average [3, 33]: 82.5
t/c (revertant colonies treated/untreated plates) [3, 33]: 1.1
revertant colonies, average [3, 34]: 82.5
t/c (revertant colonies treated/untreated plates) [3, 34]: 1.1
revertant colonies, average [4, 35]: 47.0
t/c (revertant colonies treated/untreated plates) [4, 35]: 1.0
revertant colonies, average [4, 36]: 49.0
t/c (revertant colonies treated/untreated plates) [4, 36]: 1.1
revertant colonies, average [4, 37]: 52.5
t/c (revertant colonies treated/untreated plates) [4, 37]: 1.1
revertant colonies, average [4, 38]: 47.5
t/c (revertant colonies treated/untreated plates) [4, 38]: 1.0
revertant colonies, average [4, 39]: 47.5
t/c (revertant colonies treated/untreated plates) [4, 39]: 1.0
revertant colonies, average [4, 40]: 39.0
t/c (revertant colonies treated/untreated plates) [4, 40]: 1.0
revertant colonies, average [4, 41]: 42.0
t/c (revertant colonies treated/untreated plates) [4, 41]: 1.1
revertant colonies, average [4, 42]: 38.5
t/c (revertant colonies treated/untreated plates) [4, 42]: 1.0
revertant colonies, average [4, 43]: 41.0
t/c (revertant colonies treated/untreated plates) [4, 43]: 1.1
revertant colonies, average [4, 44]: 41.0
t/c (revertant colonies treated/untreated plates) [4, 44]: 1.1
